The results in this text go back to ChEMBL document CHEMBL1275273, “QSAR prediction of D2 receptor antagonistic activity of 6-methoxy benzamides” (Eur J Med Chem, 2010).

Chain of D(2) dopamine receptor (P14416 whole entry): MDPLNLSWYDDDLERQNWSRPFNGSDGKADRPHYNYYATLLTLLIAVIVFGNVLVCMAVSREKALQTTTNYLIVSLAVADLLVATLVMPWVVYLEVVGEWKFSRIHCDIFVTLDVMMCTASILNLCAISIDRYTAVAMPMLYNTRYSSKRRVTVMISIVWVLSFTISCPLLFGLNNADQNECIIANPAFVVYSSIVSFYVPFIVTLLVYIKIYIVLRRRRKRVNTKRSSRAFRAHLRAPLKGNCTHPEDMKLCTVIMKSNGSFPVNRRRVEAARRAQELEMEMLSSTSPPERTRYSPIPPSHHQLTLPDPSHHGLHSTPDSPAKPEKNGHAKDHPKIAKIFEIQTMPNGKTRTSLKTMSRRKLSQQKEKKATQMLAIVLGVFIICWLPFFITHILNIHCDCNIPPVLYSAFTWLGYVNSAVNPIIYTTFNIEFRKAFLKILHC

The experiment has as its target D(2) dopamine receptor (Homo sapiens, UniProt P14416). In words: Antagonist activity at dopamine D2 receptor. The format is functional.
As a reminder, the IC50 is the concentration that inhibits the measured activity by half. The low end stands for greater potency in that assay, the high end for weaker potency in that assay. In turn, `CCN1CCC[C@H]1CNC(=O)c1cc(Cl)ccc1OC` had an IC50 of 257 nM.

`CCN1CCC[C@H]1CNC(=O)c1cc(Br)ccc1OC`: the IC50 is 45.7 nM.

`CCN1CCC[C@H]1CNC(=O)c1cccc(O)c1OC`: the IC50 was 316 nM.

On to `CCN1CCC[C@H]1CNC(=O)c1c(OC)c(O)cc(I)c1OC`, for which half-maximal inhibition (IC50) was put at 0.288 nM.

Regarding `CCN1CCC[C@H]1CNC(=O)c1c(OC)ccc(SC)c1OC`, the IC50 is 1.1 nM.

Compound `CCc1cc(O)c(OC)c(C(=O)NC[C@@H]2CCCN2CC)c1OC` showed an IC50 of 1.29 nM.

The compound `CCCCc1ccc(OC)c(C(=O)NC[C@@H]2CCCN2CC)c1OC` had a concentration for half-maximal inhibition (IC50) of 2.69 nM.

`CCCc1ccc(OC)c(C(=O)NC[C@@H]2CCCN2CC)c1` had an IC50 of 67.6 nM.

Regarding `CCN1CCC[C@H]1CNC(=O)c1c(OC)ccc(Cl)c1Cl`, the IC50 was 20 nM.

For `CCN1CCC[C@H]1CNC(=O)c1c(OC)ccc(Cl)c1Br`, the IC50 is 5.62 nM.

Regarding `CCc1ccc(OC)c(C(=O)NC[C@@H]2CCCN2CC)c1Cl`, the IC50 is 4.17 nM.

In the case of `CCN1CCC[C@H]1CNC(=O)c1c(Cl)ccc(O)c1OC`, the 50% inhibitory concentration (IC50) is 64.6 nM.

In the case of `CCN1CCC[C@H]1CNC(=O)c1c(OC)ccc(O)c1OC`, the half-inhibitory concentration (IC50) is 8.71 nM.

For `CCN1CCC[C@H]1CNC(=O)c1cc(F)cc(O)c1OC`, half-maximal inhibition (IC50) was put at 363 nM.

`CCN1CCC[C@H]1CNC(=O)c1cc(Cl)cc(O)c1OC` had a half-maximal inhibitory concentration (IC50) of 38.9 nM.

With `CCN1CCC[C@H]1CNC(=O)c1c(Br)c(Cl)cc(O)c1OC`, the 50% inhibitory concentration (IC50) was 57.5 nM.

In turn, `CCc1c(Cl)cc(O)c(OC)c1C(=O)NC[C@@H]1CCCN1CC` showed an IC50 of 12 nM.

Compound `CCN1CCC[C@H]1CNC(=O)c1cc(Br)cc(O)c1OC` had an IC50 of 8.32 nM.

Consider `CCN1CCC[C@H]1CNC(=O)c1c(Cl)c(Br)cc(O)c1OC`, for which the concentration for half-maximal inhibition (IC50) is 17 nM.

For `CCN1CCC[C@H]1CNC(=O)c1c(Br)c(Br)cc(O)c1OC`, the IC50 was 25.7 nM.

`CCN1CCC[C@H]1CNC(=O)c1c(OC)c(O)cc(Br)c1OC`: it took 1.41 nM to reach half-maximal inhibition (IC50).

In turn, `CCN1CCC[C@H]1CNC(=O)c1c(OC)c(O)cc(Br)c1[N+](=O)[O-]` showed a half-maximal inhibitory concentration (IC50) of 186 nM.

In the case of `CCN1CCC[C@H]1CNC(=O)c1cc(I)cc(O)c1OC`, half-maximal inhibition (IC50) was put at 3.02 nM.

Regarding `CCN1CCC[C@H]1CNC(=O)c1c(Cl)c(C)cc(O)c1OC`, half-maximal inhibition (IC50) was put at 25.7 nM.

Compound `CCN1CCC[C@H]1CNC(=O)c1c(C)c(C)cc(O)c1OC` showed an IC50 of 7.76 nM.

Consider `CCc1cc(O)c(OC)c(C(=O)NC[C@@H]2CCCN2CC)c1`, for which the IC50 was 2.88 nM.

With `CCc1cc(O)c(OC)c(C(=O)NC[C@@H]2CCCN2CC)c1F`, half-maximal inhibition (IC50) required 1.51 nM.

With `CCc1cc(O)c(OC)c(C(=O)NC[C@@H]2CCCN2CC)c1Cl`, the IC50 is 0.912 nM.

As for `CCc1cc(O)c(OC)c(C(=O)NC[C@@H]2CCCN2CC)c1Br`, the midpoint of inhibition, the IC50, lay at 2.29 nM.

In turn, `CCCc1cc(O)c(OC)c(C(=O)NC[C@@H]2CCCN2CC)c1` had an IC50 of 0.501 nM.

`CCN1CCC[C@H]1CNC(=O)c1cc(OC)cc(O)c1OC` had an IC50 of 204 nM.

With `CCN1CCC[C@H]1CNC(=O)c1c(Br)c(OC)cc(O)c1OC`, the concentration for half-maximal inhibition (IC50) is 67.6 nM.

Compound `CCCc1cc(O)c(OC)c(C(=O)NC[C@@H]2CCCN2CC)c1Cl` gave a half-maximal inhibitory concentration (IC50) of 3.24 nM.

Take `CCN1CCC[C@H]1CNC(=O)c1c(Br)c(C)cc(O)c1OC`: the midpoint of inhibition, the IC50, lay at 5.5 nM.

Turning to `CCN1CCC[C@H]1CNC(=O)c1c(OC)ccc(C)c1OC`, the half-maximal inhibitory concentration (IC50) is 5.25 nM.

For `CCc1c(Br)cc(O)c(OC)c1C(=O)NC[C@@H]1CCCN1CC`, inhibition was half-maximal at 17 nM (IC50).

As to `CCc1cc(O)c(OC)c(C(=O)NC[C@@H]2CCCN2CC)c1CC`, it took 1.78 nM to reach half-maximal inhibition (IC50).

As for `CCc1ccc(OC)c(C(=O)NC[C@@H]2CCCN2CC)c1`, the midpoint of inhibition, the IC50, lay at 39.8 nM.

`CCN1CCC[C@H]1CNC(=O)c1c(Cl)c(Cl)cc(O)c1OC` had an IC50 of 32.4 nM.

In turn, `CCN1CCC[C@H]1CNC(=O)c1c(Cl)c(OC)cc(O)c1OC` showed an IC50 of 70.8 nM.

Turning to `CCN1CCC[C@H]1CNC(=O)c1c(Br)ccc(O)c1OC`, half-maximal inhibition (IC50) was put at 56.2 nM.

Compound `CCN1CCC[C@H]1CNC(=O)c1c(C)c(Cl)cc(O)c1OC` showed a half-inhibitory concentration (IC50) of 11 nM.

The compound `CCN1CCC[C@H]1CNC(=O)c1c(OC)c(O)cc(Cl)c1OC` gave an IC50 of 1.7 nM.

As for `CCN1CCC[C@H]1CNC(=O)c1c(OC)ccc(Br)c1Br`, half-maximal inhibition (IC50) was put at 7.94 nM.

As to `CCc1ccc(OC)c(C(=O)NC[C@@H]2CCCN2CC)c1Br`, the IC50 was 11 nM.

The compound `CCN1CCC[C@H]1CNC(=O)c1c(F)c(Br)cc(O)c1OC` showed a half-inhibitory concentration (IC50) of 7.08 nM.

With `CCN1CCC[C@H]1CNC(=O)c1c(C)c(Br)cc(O)c1OC`, half-maximal inhibition (IC50) required 11 nM.

As for `CCN1CCC[C@H]1CNC(=O)c1cc(C)cc(O)c1OC`, inhibition was half-maximal at 19.1 nM (IC50).

In turn, `CCCc1cc(O)c(OC)c(C(=O)NC[C@@H]2CCCN2CC)c1C` had a 50% inhibitory concentration (IC50) of 5.01 nM.

`CCCc1c(Cl)cc(O)c(OC)c1C(=O)NC[C@@H]1CCCN1CC` gave an IC50 of 110 nM.

Consider `CCc1ccc(O)c(OC)c1C(=O)NC[C@@H]1CCCN1CC`, for which the concentration for half-maximal inhibition (IC50) is 123 nM.

For the compound `CCCc1c(C)cc(O)c(OC)c1C(=O)NC[C@@H]1CCCN1CC`, the IC50 is 141 nM.

In the case of `CCN1CCC[C@H]1CNC(=O)c1cc([N+](=O)[O-])cc(O)c1OC`, half-maximal inhibition (IC50) was put at 3020 nM.

In turn, `CCN1CCC[C@H]1CNC(=O)c1c(OC)ccc(I)c1OC` had an IC50 of 0.676 nM.

The compound `CCN1CCC[C@H]1CNC(=O)c1c(OC)cccc1OC` showed an IC50 of 52.5 nM.

As for `CCc1ccc(OC)c(C(=O)NC[C@@H]2CCCN2CC)c1OC`, the concentration for half-maximal inhibition (IC50) is 1.29 nM.

In turn, `CCN1CCC[C@H]1CNC(=O)c1c(OC)ccc(Br)c1O` showed an IC50 of 10 nM.
